Measurements from PMC3706879, “The neurotrophic compound J147 reverses cognitive impairment in aged Alzheimer's disease mice” (Alzheimer's Research & Therapy, 2013).
Values joined by “and” are separate entries in the source; they are usually repeats but may differ in a detail not shown here. Identical values can stand only once. “Also recorded” adds a separate entry of the source.

Columns and labels:
[1] = molecular target: T1, monoamine oxidase B (MAO B) (Homo sapiens, UniProt P27338); assay: monoamine oxidase B assay (MDS Pharma Services); format: biochemical
T1 sequence (P27338 1-520): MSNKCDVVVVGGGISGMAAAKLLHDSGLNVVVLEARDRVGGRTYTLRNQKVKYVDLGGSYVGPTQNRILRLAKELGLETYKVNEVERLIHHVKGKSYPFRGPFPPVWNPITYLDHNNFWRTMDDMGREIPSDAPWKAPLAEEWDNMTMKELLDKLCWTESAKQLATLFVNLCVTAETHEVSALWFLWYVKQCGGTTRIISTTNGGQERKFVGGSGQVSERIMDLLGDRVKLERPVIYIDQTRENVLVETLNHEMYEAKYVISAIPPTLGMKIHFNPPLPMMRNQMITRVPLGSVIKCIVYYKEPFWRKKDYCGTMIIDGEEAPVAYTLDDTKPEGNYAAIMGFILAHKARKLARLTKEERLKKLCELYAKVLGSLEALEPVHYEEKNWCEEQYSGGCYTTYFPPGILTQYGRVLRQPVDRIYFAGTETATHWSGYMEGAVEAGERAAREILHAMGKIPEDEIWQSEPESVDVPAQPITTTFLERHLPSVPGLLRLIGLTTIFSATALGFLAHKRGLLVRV
Description: All screening was done at 10 μM J147 by various contract research organizations (CROs), including MDS Pharma Services (King of Prussia, PA, USA), Ricerca, now Panlabs (Concord, OH, USA), Ambit (La Jolla, CA, USA), Caliper (Hopkinton, MA, USA) and NovaScreen Biosciences (Hanover, MD, USA) by standard protocols described in their catalogs.

[2] = pharmacokinetic profile in mice, per oral administration (Pharmaron); format: in vivo, CD1 Mice
Description: The pharmacokinetics of J147 in the mouse brain and plasma were evaluated using standard procedures. Blood and brain distribution of J147 following per oral (PO) administration was plotted for mice as a function of time (Figure 5). […] Additional de-risking and target identification screens were carried out at 10 μM J147 by various CROs (Table 2). […] All original data are available upon request.
Figure 5 Pharmacokinetic profile of J147 in mice. (A) The pharmacokinetic profile of J147 in mice was done by Pharmaron (Louisville, KY, USA). Plasma (B) and brain (C) distribution of J147 was plotted as a function of time following or per oral (PO) administration at 20 mg/kg.

mice = assay: acute toxicity in mice (Absorption Systems); format: in vivo; details: 2 g/kg, oral, maximum testable dose
HT22 cells = details: 10 μM J147, one hour
Description: HT22 cells were plated in DMEM plus 10% FCS. The next day, the cells were treated with 10 μM J147 for 1 hr before RNA isolation.
RNA was isolated with the use of RNeasy Mini kit (Qiagen, #74104; Valencia, CA, USA) according to the manufacturer's instructions. Total RNA was quantified using the ND-1000 Nanodrop and assessed for quality using the ratios: A260/280 (range: 1.9 to 2.1) and A260/230 (range: 2.0 to 2.2, if <2.0, contamination), in addition to the Bioanalyzer (Agilent Technologies, Cedar Creek, TX, USA) if further quality assessment was required.
After RNA isolation for each sample, double stranded cDNA was synthesized from 500 ng total RNA and biotin-labeled using the GeneChip 3' IVT Express Kit (Affymetrix, Santa Clara, CA, USA, #901228-A) per the manufacturer's instructions and protocol. RNA was purified, quantified, fragmented randomly to an average size of 50 to 200 bases and hybridized to GeneChip® Mouse Genome 430 2.0 Arrays (Affymetrix,) consisting of over 45,000 probe sets representing more than 34,000 named mouse genes. The hybridization and processing of the GeneChips were conducted by Salk Institute's Functional Genomics Core Facility using the following systems from Affymetrix (Santa Clara, CA, USA): GeneChip® Hybridization Oven 640, GeneChip® Fluidics Station 450 to the wash and stain operation of Affymetrix GeneChip® arrays, and the GeneChip® Scanner 3000 7G.
Affymetrix Expression Console Software (version 1.0) was used to perform quality assessment of the microarray scan/experiments. Array data were normalized via scaling to adjust the average intensity of each array to be similar. GeneChips were analyzed by the GeneChip Operating Software (Affymetrix) with the default settings except that the target signal was set to 200 for GeneChip quality control. Raw data were analyzed through the gcRMA-algorithm using the Affymetrix package in R software for statistical computing and graphics. The median microarray intensity for all microarrays was normalized to 100, and probe sets with median intensities >100 were scored. Fold changes were calculated in Microsoft Excel Microsoft, Redmond, Washington, USA). Genes of interest and genes with the highest fold-changes were validated using Real-Time Quantitative PCR. The data discussed in this publication have been deposited in NCBI's Gene Expression Omnibus and are accessible through GEO Series accession number GSE45534 [26].

PC12 cells = assay: neurite outgrowth of PC12 cells with HT22 growth conditioned medium; format: cell-based
Description: The HT22 cell line was used to make growth conditioned medium. HT22 is a nerve cell line derived from mouse brain and is widely used to study nerve cell physiology. To make HT22 growth conditioned medium, cells were grown in DMEM with 10% fetal calf serum. Then, semiconfluent cultures were washed three times with serum-free DMEM and cultured overnight in a reduced volume of DMEM in the presence or absence of 100 nM J147. The following day, the growth conditioned medium was collected and centrifuged at 10,000 × g to remove detached cells. To determine the effect of the conditioned medium on NGF-induced neurite outgrowth, PC12 cells were dissociated and plated on polyornithine-coated tissue culture dishes in the following conditions: 1) HT22 conditioned medium, 2) J147 treated HT22 conditioned medium, 3) DMEM alone plus J147, 4) DMEM plus NGF at 50 nanograms per ml, 5) J147 treated HT22 conditioned medium pre-incubated for one hour with 10 μg/ml anti-NGF and N2 supplement (Invitrogen). N2 supplement, which contains transferrin, was used in the presence of antibody to minimize the possibility that antibody protein non-specifically modified cell-substrate from adhesion and therefore neurite outgrowth. Phase contrast photographs were taken 24 hrs later.

BDNF = system: BDNF; parameters: method as in PMID 22194796; details: normal rats; cited from earlier work

**Q.** With `COc1cccc(/C=N/N(C(=O)C(F)(F)F)c2ccc(C)cc2C)c1` [J147, (E)-N-(2,4-dimethylphenyl)-2,2,2-trifluoro-N'-(3methoxybenzyli-dene) acetohydrazide] as the molecule, how does the “inhibition, monoamine oxidase B” value ([1]; 10 μM J147) read?
**A.** greater than 60%

**Q.** What about the EC50 ([1]; dose response, re-assay after screening) of the same molecule?
**A.** 1880 nM

**Q.** And the brain levels ([2]; at 2 h after a single dose of 20 mg/kg in mice)?
**A.** about 600 nM

**Q.** What about the half life ([2]; brain, mice, PO) of the same molecule?
**A.** 2.5 h

**Q.** And the “bioavailability following oral administration” value ([2]; mice, PO)?
**A.** 28%

**Q.** What about the half life ([2]; plasma, mice, PO) of the same molecule?
**A.** 1.5 h

**Q.** And the “brain to blood ratio” value ([2]; single dose of 20 mg/kg in mice)?
**A.** approximately 0.5

**Q.** And the acute toxicity (mice)?
**A.** no oral toxicity; also recorded: negative results

**Q.** What about the “Fold change: J147 (1 hr) vs Control, Egr1 mRNA” value (HT22 cells) of the same molecule?
**A.** 2.5 fold

**Q.** And the “Fold change: J147 (1 hr) vs Control, Egr3 mRNA” value (HT22 cells)?
**A.** 8 fold and 8.0 fold

**Q.** And the “Fold change: J147 (1 hr) vs Control, Ngf mRNA” value (HT22 cells)?
**A.** 2.8 fold

**Q.** What about the “Fold change: J147 (1 hr) vs Control, No title (chr8:13161324 to 13161817)” value (HT22 cells) of the same molecule?
**A.** 2.6 fold

**Q.** What about the “Fold change: J147 (1 hr) vs Control, Spred2 mRNA” value (HT22 cells) of the same molecule?
**A.** 2.7 fold

**Q.** And the “neurite outgrowth, fresh DMEM plus J147” value (PC12 cells; 100 nM J147 in fresh DMEM)?
**A.** did not

**Q.** What about the “neurite outgrowth, conditioned medium from J147 treated HT22 cells” value (PC12 cells; HT22 cells incubated overnight with 100 nM J147, 24 hrs) of the same molecule?
**A.** promoted neurite outgrowth

**Q.** And the “penetration in the Caco-2 assay” value (Caco-2)?
**A.** moderate and symmetrical penetration

**Q.** And the “levels of BDNF in the hippocampus” value (BDNF)?
**A.** increases the levels of BDNF
